Source: US11007216B2, “Combination therapy to achieve enhanced antimicrobial activity” (International Business Machines Corporation, priority 2019, dated 2021)

System: A. baumannii
Assay: minimum inhibitory concentration (MIC) against A. baumannii
Type: cell-based, Acinetobacter baumannii

Molecule | MIC
CC(=O)OC[C@H]1O[C@@H]([S-])[C@H](OC(C)=O)[C@@H](OC(C)=O)[C@@H]1OC(C)=O.CCP(CC)CC.[Au+] [Auranofin, (2,3,4,6-Tetra-O-acetyl-1-thio-β-D-glucopyranosato-κS^1)(triethylphosphoranylidene)gold] | 15.6 µg/mL
Colistin | 1 µg/mL
